According to patent US4427693A, “Antiinflammatory 4,5-diaryl-α,α-bis (polyhalomethyl)-2-thiophenemethanamines” (E. I. Du Pont de Nemours and Company, priority 1981, dated 1984):
Where two headings read alike, the source gives them in different places.

System: Adjuvant-Induced Arthritis
Test: Established Adjuvant-Induced Arthritis in Rats
Assay type: in vivo, Charles River Lewis male rats
Conditions: for ED50: Rattus norvegicus, 168 h, read-out: ED50 = effective dose for 50% decrease from control paw volume
Procedure: A procedure for detecting and comparing the antiinflammatory activity of compounds in this series and standard drugs for which there is a good correlation with human efficacy is the adjuvant-induced arthritis test in rats.
Established Adjuvant-Induced Arthritis in Rats
Charles River Lewis male rats (130-150 grams) are injected subcutaneously in plantar area of the right hind paw with 0.1 ml of adjuvant (Difco heatkilled, lyophilized Mycobacterium butyricum suspended in mineral oil 5 mg/ml). 20 Non-arthritic controls are injected with mineral oil. The animals are held for 2 weeks to allow development of arthritis. Paw volumes (uninjected, left hind paw) are measured and the adjuvant injected rats are culled and distributed to treatment groups of 10 of equal disease severity. Non-arthritic controls are distributed to 2 groups of 10. The rats are given oral doses of compound or PVA-Acacia (Polyvinyl Alcohol 1%, Gum Acacia, U.S.P. 5%, Methylparaben 0.5%) (10 ml/kg) by gavage on that day and on the 6 following days. One day after the last dose the paw volumes (uninjected, left hind paw) are measured using a Ugo Basile Volume Differential Meter Model 7101. [formula]
Dose-response regression lines of the % decrease are plotted on semi-log paper by visual fit and the ED50% decrease from control paw volume is determined by inspection.

[1] = oral by gavage, daily, 7 days, dose-response regression lines, by visual fit

| SMILES | ED50 [1] | also measured |
| --- | --- | --- |
| NC(c1cc(-c2ccc(F)cc2)c(-c2ccc(Cl)cc2)s1)(C(F)(F)F)C(F)(F)F [Example 4] | – | Percent Decrease From Control Paw Volume (daily oral dose 9 mg/kg, 7 days, p < 0.1 compared to control by Students "t" test): 37% |
| CCCCC1C(=O)N(c2ccccc2)N(c2ccccc2)C1=O [Phenylbutazone, reference compound] | 10 mg/kg | – |
| NC(c1cc(-c2ccccc2)c(-c2ccccc2)s1)(C(F)(F)F)C(F)(F)F [Example 5] | 17 mg/kg | – |
| NC(c1cc(-c2ccccc2F)c(-c2ccccc2F)s1)(C(F)(F)F)C(F)(F)F [Example 18] | – | Percent Decrease From Control Paw Volume (daily oral dose 81 mg/kg, 7 days, p < 0.001 compared to control by Students "t" test): 41% |
| NC(c1cc(-c2ccc(F)cc2)c(-c2ccc(F)cc2)s1)(C(F)(F)F)C(F)(F)F [Example 2, 4,5-bis(4-fluorophenyl)-α,α-bis(trifluoromethyl)-2-thiophenemethanamine] | 1.3 mg/kg | – |
| COc1ccc(-c2cc(C(N)(C(F)(F)F)C(F)(F)F)sc2-c2ccc(OC)cc2)cc1 [Example 1, 4,5-Bis(4-methoxyphenyl)-α,α-bis(trifluoromethyl)-2-thiophenemethanamine] | – | Percent Decrease From Control Paw Volume (daily oral dose 27 mg/kg, 7 days, p < 0.001 compared to control by Students "t" test): 47% |
| CC(=O)Oc1ccccc1C(=O)O [Aspirin, reference compound] | – | ED50 (po): 270 mg/kg |
| NC(c1cc(-c2ccc(F)cc2)c(-c2ccc(F)cc2)s1)(C(F)F)C(F)(F)F (stereo not shown) [Example 7] | 10.5 mg/kg | – |
| COc1ccc2c(c1)c(CC(=O)O)c(C)n2C(=O)c1ccc(Cl)cc1 [Indomethacin, reference compound] | – | ED50 (po): 0.25 mg/kg |
| Cc1ccc(-c2cc(C(N)(C(F)(F)F)C(F)(F)F)sc2-c2ccc(C)cc2)cc1 [Example 13] | – | Percent Decrease From Control Paw Volume (daily oral dose 24 mg/kg, 7 days, p < 0.05 compared to control by Students "t" test): 27% |
| NC(c1cc(-c2ccc(F)cc2)c(-c2ccc(F)cc2)s1)(C(F)(F)F)C(F)(F)Cl (stereo not shown) [Example 6] | 3.8 mg/kg | – |
| CNC(c1cc(-c2ccc(F)cc2)c(-c2ccc(F)cc2)s1)(C(F)(F)F)C(F)(F)F [Example 28, 1-[4,5-Bis(4-fluorophenyl)thiophen-2-yl]-2,2,2-trifluoro-1-trifluoromethyl-N-methylethanamine] | 6.2 mg/kg | – |
| CSc1ccc(-c2sc(C(N)(C(F)(F)F)C(F)(F)F)cc2-c2ccc(F)cc2)cc1 [Example 3, 4-(4-fluorophenyl)-5-(4-methylthiophenyl)-α,α-bis(trifluoromethyl)-2-thiophenemethanamine] | 9 mg/kg | – |
